According to ChEMBL document CHEMBL1201862, “PubChem BioAssay data set” (2004):
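Interpolation was linear, between the two tested concentrations surrounding the appropriate level; five concentrations were tested over 48 hours in 96-well plates. GI50 = concentration required for 50% inhibition of growth.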 Calls of active or inactive are those of the source. Cut-off read from the data, not from the text of the source: active = GI50 up to about 1.1 µM and inactive = higher. Peptide text beside a SMILES is read from it. * marks the point of attachment. X27 = Clc1c(Cl)c(Cl)c(O*)c(Cl)c1Cl; Boc = CC(C)(C)OC(=O)*; OBn = c1ccc(CO*)cc1; Bn = c1ccc(C*)cc1

Columns and labels:
Assay in all cases: NCI tumour cell line growth inhibition, 48 h
MCF7 = system: MCF7
MDA-MB-435 = system: MDA-MB-435
SF-295 = system: SF-295
UACC-257 = system: UACC-257
SK-MEL-5 = system: SK-MEL-5
CAKI-1 = system: CAKI-1
SK-MEL-28 = system: SK-MEL-28
SN12C = system: SN12C
RXF 393 = system: RXF 393
HOP-92 = system: HOP-92
IGROV-1 = system: IGROV-1
OVCAR-3 = system: OVCAR-3
SNB-75 = system: SNB-75
SF-268 = system: SF-268
SK-MEL-2 = system: SK-MEL-2
NCI/ADR-RES = system: NCI/ADR-RES
OVCAR-4 = system: OVCAR-4
RPMI-8226 = system: RPMI-8226
CCRF-CEM = system: CCRF-CEM
SW-620 = system: SW-620

Measured: GI50

OCCCCCNc1cc(O)nc(O)n1
inactive: MCF7 > 100 µM | MDA-MB-435 > 100 µM | SF-295 > 100 µM | UACC-257 > 100 µM | SK-MEL-5 > 100 µM | CAKI-1 > 100 µM | SK-MEL-28 > 100 µM | SN12C > 100 µM | RXF 393 > 100 µM | HOP-92 > 100 µM | IGROV-1 > 100 µM | OVCAR-3 > 100 µM | SNB-75 > 100 µM | SF-268 > 100 µM | SK-MEL-2 > 100 µM | NCI/ADR-RES > 100 µM | OVCAR-4 > 100 µM | RPMI-8226 > 100 µM | CCRF-CEM > 100 µM | SW-620 > 100 µM

Cc1c2c(C(N)=O)nccc2c(C)c2c1c1ccccc1n2Cc1ccccc1
inactive: MCF7 37 µM | MDA-MB-435 33.9 µM | SF-295 10.8 µM | UACC-257 43.3 µM | SK-MEL-5 34.8 µM | CAKI-1 17.6 µM | SK-MEL-28 54.5 µM | SN12C 17.7 µM | RXF 393 11.9 µM | HOP-92 4.93 µM | IGROV-1 16.2 µM | OVCAR-3 3.97 µM | SNB-75 5.33 µM | SF-268 28.4 µM | SK-MEL-2 18.8 µM | NCI/ADR-RES 9.75 µM | OVCAR-4 2.61 µM | RPMI-8226 26.8 µM | CCRF-CEM 23.3 µM | SW-620 17.2 µM

CCOC(=O)Cc1nc2c(O)ncnc2n1C1OC(COC(C)=O)C(OC(C)=O)C1OC(C)=O (stereo not given)
inactive: MCF7 > 100 µM | MDA-MB-435 > 100 µM | SF-295 > 100 µM | UACC-257 > 100 µM | SK-MEL-5 > 100 µM | CAKI-1 > 100 µM | SK-MEL-28 > 100 µM | SN12C > 100 µM | RXF 393 > 100 µM | HOP-92 > 100 µM | IGROV-1 > 100 µM | OVCAR-3 > 100 µM | SNB-75 > 100 µM | SF-268 > 100 µM | SK-MEL-2 > 100 µM | NCI/ADR-RES > 100 µM | OVCAR-4 > 100 µM | RPMI-8226 > 100 µM | CCRF-CEM > 100 µM | SW-620 > 100 µM

Cc1ccc([N+](=O)[O-])c2c(NCCCN(C)C)ccnc12
inactive: MCF7 39.4 µM | MDA-MB-435 21.6 µM | SF-295 > 100 µM | UACC-257 39.2 µM | SK-MEL-5 29.6 µM | CAKI-1 > 89.5 µM | SK-MEL-28 > 100 µM | SN12C 44.3 µM | RXF 393 > 100 µM | HOP-92 56.9 µM | IGROV-1 30 µM | OVCAR-3 33.1 µM | SNB-75 33.7 µM | SF-268 > 95.9 µM | SK-MEL-2 36.6 µM | NCI/ADR-RES 66.2 µM | OVCAR-4 22.4 µM | RPMI-8226 > 100 µM | CCRF-CEM > 100 µM | SW-620 30.7 µM

COc1cc(N(Cc2ccc3oc(=O)c(-c4ccccc4)nc3c2)Cc2ccc3oc(=O)c(-c4ccccc4)nc3c2)cc(OC)c1OC
inactive: MCF7 > 10 µM | MDA-MB-435 > 10 µM | SF-295 > 10 µM | UACC-257 > 10 µM | SK-MEL-5 > 10 µM | CAKI-1 > 10 µM | SK-MEL-28 > 10 µM | SN12C > 10 µM | RXF 393 > 10 µM | HOP-92 > 10 µM | IGROV-1 > 10 µM | OVCAR-3 > 10 µM | SNB-75 > 10 µM | SF-268 > 10 µM | SK-MEL-2 > 10 µM | NCI/ADR-RES > 10 µM | OVCAR-4 > 10 µM | RPMI-8226 > 10 µM | CCRF-CEM > 10 µM | SW-620 > 10 µM

Clc1ccccc1-c1nc2cc(C34CC5CC(CC(C5)C3)C4)ccc2[nH]1
inactive: MCF7 11.2 µM | MDA-MB-435 > 100 µM | SF-295 13.6 µM | UACC-257 59.7 µM | SK-MEL-5 32.7 µM | CAKI-1 31.4 µM | SK-MEL-28 20.6 µM | SN12C 24.3 µM | RXF 393 5.4 µM | HOP-92 10.5 µM | IGROV-1 17.3 µM | SNB-75 5.71 µM | SF-268 41.1 µM | SK-MEL-2 15 µM | NCI/ADR-RES 28.1 µM | OVCAR-4 21.5 µM | RPMI-8226 34.2 µM | CCRF-CEM 33 µM | SW-620 46 µM

NC(=O)NCCSC1CCCCC1O (stereo not given)
inactive: MCF7 > 100 µM | MDA-MB-435 > 100 µM | SF-295 > 100 µM | UACC-257 > 100 µM | SK-MEL-5 > 100 µM | CAKI-1 > 100 µM | SK-MEL-28 > 100 µM | SN12C > 100 µM | RXF 393 > 100 µM | HOP-92 > 100 µM | IGROV-1 > 100 µM | OVCAR-3 > 100 µM | SNB-75 > 100 µM | SF-268 > 100 µM | SK-MEL-2 > 100 µM | NCI/ADR-RES > 100 µM | OVCAR-4 > 100 µM | RPMI-8226 > 100 µM | SW-620 > 100 µM

C[C@]12CC[C@H](O)CC1=CC[C@@H]1[C@@H]2CC[C@]2(C)c3nc(Cl)ccc3C[C@@H]12
inactive: MCF7 > 64.7 µM | MDA-MB-435 6.76 µM | SF-295 28.2 µM | UACC-257 > 100 µM | SK-MEL-5 > 46.2 µM | CAKI-1 > 100 µM | SK-MEL-28 > 64.1 µM | SN12C 44.8 µM | RXF 393 37.9 µM | HOP-92 > 100 µM | IGROV-1 61.5 µM | OVCAR-3 27.3 µM | SNB-75 25 µM | SF-268 26.7 µM | SK-MEL-2 > 100 µM | NCI/ADR-RES 29.5 µM | OVCAR-4 > 53.7 µM | RPMI-8226 39.4 µM | CCRF-CEM 8.17 µM | SW-620 > 42.3 µM

Cc1nc2cccc(F)c2c(=O)n1-c1nnc(C(F)(F)F)s1
inactive: MCF7 > 10 µM | MDA-MB-435 > 10 µM | SF-295 > 10 µM | UACC-257 > 10 µM | SK-MEL-5 > 10 µM | CAKI-1 > 10 µM | SK-MEL-28 > 10 µM | SN12C > 10 µM | RXF 393 > 10 µM | HOP-92 > 10 µM | IGROV-1 > 10 µM | OVCAR-3 > 10 µM | SNB-75 > 10 µM | SF-268 > 10 µM | SK-MEL-2 > 10 µM | NCI/ADR-RES > 10 µM | OVCAR-4 > 10 µM | RPMI-8226 > 10 µM | CCRF-CEM > 10 µM | SW-620 > 10 µM

CCCC(O)c1cn(C(NC(=O)c2ccccc2)P(=O)(OCC)OCC)nn1 (stereo not given)
inactive: MCF7 > 100 µM | MDA-MB-435 > 100 µM | SF-295 > 100 µM | UACC-257 > 100 µM | SK-MEL-5 > 100 µM | CAKI-1 > 100 µM | SK-MEL-28 > 100 µM | SN12C > 100 µM | RXF 393 > 100 µM | HOP-92 > 100 µM | IGROV-1 > 100 µM | OVCAR-3 > 100 µM | SNB-75 > 100 µM | SF-268 > 100 µM | SK-MEL-2 > 100 µM | NCI/ADR-RES > 100 µM | OVCAR-4 > 100 µM | RPMI-8226 > 100 µM | CCRF-CEM > 100 µM | SW-620 > 100 µM

C=C(CN(CC)CC)C1(c2ccccc2)CC2(CCCC2)C(=O)O1 (stereo not given)
inactive: MCF7 > 100 µM | MDA-MB-435 > 100 µM | SF-295 > 100 µM | UACC-257 34.4 µM | SK-MEL-5 68.4 µM | CAKI-1 > 100 µM | SK-MEL-28 > 100 µM | SN12C > 100 µM | RXF 393 > 100 µM | HOP-92 28.6 µM | IGROV-1 > 100 µM | OVCAR-3 82 µM | SNB-75 33 µM | SF-268 > 100 µM | SK-MEL-2 > 100 µM | NCI/ADR-RES 11.1 µM | OVCAR-4 > 100 µM | RPMI-8226 76.2 µM | CCRF-CEM > 100 µM | SW-620 > 100 µM

O=C1CCCC1CC(CN1CCOCC1)Sc1nnnn1-c1ccccc1 (stereo not given)
inactive: MCF7 18.2 µM | MDA-MB-435 > 100 µM | SF-295 > 100 µM | UACC-257 > 100 µM | SK-MEL-5 > 100 µM | CAKI-1 16.8 µM | SK-MEL-28 > 100 µM | SN12C > 100 µM | RXF 393 34.6 µM | HOP-92 > 100 µM | IGROV-1 > 100 µM | OVCAR-3 > 100 µM | SNB-75 21.3 µM | SK-MEL-2 > 100 µM | NCI/ADR-RES > 100 µM | OVCAR-4 > 100 µM | RPMI-8226 42.1 µM | CCRF-CEM > 100 µM | SW-620 > 100 µM

COc1ccc(/C=C(\NC(=O)c2ccccc2)C(=O)NN(C)c2ccnc3cc(Cl)ccc23)cc1OC
inactive: MCF7 19.8 µM | MDA-MB-435 21.3 µM | SF-295 36.2 µM | UACC-257 26.4 µM | SK-MEL-5 23.6 µM | CAKI-1 28.8 µM | SK-MEL-28 26 µM | SN12C 25.9 µM | RXF 393 18.9 µM | HOP-92 21.4 µM | IGROV-1 17.2 µM | OVCAR-3 27.6 µM | SNB-75 32.2 µM | SF-268 18.5 µM | SK-MEL-2 21.3 µM | NCI/ADR-RES 20.1 µM | OVCAR-4 30.7 µM | RPMI-8226 20 µM | SW-620 22.1 µM

CC(C)CC(NC(=O)C(CCC(=O)OCc1ccccc1)NC(=O)OC(C)(C)C)C(=O)NC(COCc1ccccc1)C(=O)NC(Cc1ccccc1)C(=O)Oc1c(Cl)c(Cl)c(Cl)c(Cl)c1Cl (stereo not given) (Boc-E(OBn)LS(Bn)F-X27; configuration not given here)
inactive: MCF7 22.6 µM | MDA-MB-435 26.2 µM | SF-295 25.5 µM | UACC-257 28.2 µM | SK-MEL-5 18.4 µM | CAKI-1 21.2 µM | SK-MEL-28 19.2 µM | SN12C 29.1 µM | RXF 393 21.4 µM | HOP-92 16.5 µM | IGROV-1 20.7 µM | SNB-75 40.2 µM | SF-268 35.3 µM | SK-MEL-2 34 µM | NCI/ADR-RES 27.4 µM | OVCAR-4 35.6 µM | RPMI-8226 20.5 µM | CCRF-CEM 26.7 µM | SW-620 > 100 µM
